According to PubChem BioAssay (NCI):
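Five compound concentrations were applied to cells in 96-well plates for 48 hours; endpoints were derived by simple linear interpolation of the resulting dose-response curve. Definition used: TGI = concentration required for complete inhibition of growth.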

Columns and labels:
Assay in all cases: NCI anticancer screen, dose series, 48 h
[1] = system: SNB-75 CNS
[2] = system: TK-10 renal
[3] = system: A498 renal
[4] = system: 786-0 renal
[5] = system: NCI/ADR-RES ovarian
[6] = system: HOP-92 NSCLC
[7] = system: UACC-257 melanoma
[8] = system: HL-60(TB) leukemia
[9] = system: IGROV1 ovarian
[10] = system: ACHN renal
[11] = system: U251 CNS
[12] = system: LOX IMVI melanoma
[13] = system: T-47D breast
[14] = system: MDA-N
[15] = system: RXF 393 renal
[16] = system: DU-145 prostate
[17] = system: MDA-MB-231 breast
[18] = system: NCI-H23 lung
[19] = system: MALME-3M melanoma
[20] = system: SR leukemia

| Compound | TGI [1] [µM] | TGI [2] [µM] | TGI [3] [µM] | TGI [4] [µM] | TGI [5] [µM] | TGI [6] [µM] | TGI [7] [µM] | TGI [8] [µM] | TGI [9] [µM] | TGI [10] [µM] | TGI [11] [µM] | TGI [12] [µM] | TGI [13] [µM] | TGI [14] [µM] | TGI [15] [µM] | TGI [16] [µM] | TGI [17] [µM] | TGI [18] [µM] | TGI [19] [µM] | TGI [20] [µM] |
| --- | --- | --- | --- | --- | --- | --- | --- | --- | --- | --- | --- | --- | --- | --- | --- | --- | --- | --- | --- | --- |
| COC(=O)CCc1ccc2c(c1)CC1(C2)Cc2ccc3c(c2C1)CCC3 (stereo not given) | > 100 | > 100 | > 100 | > 100 | > 100 | > 100 | > 100 | > 100 | > 100 | > 100 | > 100 | > 100 | > 100 | > 100 | > 100 | > 100 | > 100 | > 100 | > 100 | > 100 |
| CC(OCc1ccccc1)C(NC(=O)C1CSSCC(NC(=O)C(Cc2ccccc2)NC(=O)OCc2ccccc2)C(=O)NC(Cc2ccccc2)C(=O)NC(Cc2cn(C=O)c3ccccc23)C(=O)NC(CCCCNC(=O)OCc2ccccc2)C(=O)NC(C(C)OCc2ccccc2)C(=O)N1)C(N)=O (stereo not given) | > 71.3 | > 84.8 | 63.5 | > 86.9 | > 100 | > 100 | > 93 | 2.89 | > 100 | > 100 | > 70.7 | 47 | > 63.8 | > 100 | > 100 | > 100 | 37.3 | > 100 | > 90.4 | > 93.4 |
| Cc1cc(C)c2c(c1)C(=O)C1(C2)Cc2c(ccc(C)c2C)C1=O (stereo not given) | > 100 | > 100 | > 100 | > 100 | > 100 | > 100 | > 100 | > 100 | > 100 | > 100 | > 100 | > 100 | > 100 | > 100 | > 100 | > 100 | > 100 | – | > 100 | > 100 |
| O=c1cc(-c2ccccc2Cl)[nH]c2cc3c(cc12)OCO3 | > 100 | > 44.7 | 4.16 | 29.8 | 0.0698 | 67.5 | > 72 | 0.0511 | > 37.5 | > 73.9 | 1.25 | 11.9 | > 100 | 0.0383 | 16.4 | > 18.8 | 0.982 | > 11 | > 100 | > 100 |
| CC1CC(NN(C)C)C2(C(N)=O)C(N)=NC(=O)C12C#N (stereo not given) | > 100 | > 100 | > 100 | > 100 | > 100 | > 100 | > 100 | – | > 100 | > 100 | > 100 | > 100 | > 100 | > 100 | > 100 | > 100 | > 100 | > 100 | > 100 | > 100 |
| CC1(C)C(=O)C2(C#N)CCC1C2 (stereo not given) | > 100 | > 100 | > 100 | > 100 | > 100 | > 100 | > 100 | > 100 | > 100 | > 100 | > 100 | > 100 | > 100 | > 100 | > 100 | > 100 | > 100 | > 100 | > 100 | > 100 |
| COC(=O)c1ccc(NCc2cc(O)ccc2O)cc1O | 22 | 33.2 | 58.8 | 21.5 | 10.8 | 29 | 30.9 | 4.21 | 27.8 | 22.2 | 24.2 | 32.1 | 37.5 | 23.5 | 21.6 | 25.3 | 25.7 | 27.9 | 34.7 | > 23.8 |
| Oc1[nH]c2ccccc2c1N=NC(=S)N1CCCC1 | 14.1 | 36.2 | 19.2 | 17.3 | 6.03 | 39.3 | 29.6 | 8.83 | 15 | 4.55 | 22.6 | 18.3 | 85.1 | 38.8 | 3.55 | > 100 | 55.7 | 34.5 | 9.82 | 3.65 |
| COc1ccc2c(c1)c1c3c(ccc4ncn2c43)N(CCN(C)C)CCN=1 | 2.26 | 5.73 | 2.77 | 1.3 | 1.96 | 4.07 | 3.66 | 1.1 | 4.37 | 5.39 | 1.41 | 1.53 | 6.05 | 1.59 | 2.85 | 5.2 | 1.76 | 3.59 | 2.67 | 0.209 |
| CC(=O)NNc1nc(C)c(C(/C=C/c2ccc(NC(C)=O)cc2)=N/NS(=O)(=O)c2ccc(C)cc2)s1 | > 100 | > 100 | > 100 | > 100 | > 100 | > 100 | > 100 | > 100 | > 100 | > 100 | > 100 | > 100 | > 100 | > 100 | > 100 | > 100 | > 100 | > 100 | > 100 | > 100 |
| Cc1cc(=O)[nH]c2c3c(ccc12)OC(C)(C)C=C3 | 87.9 | > 100 | > 87.7 | > 62.7 | > 100 | > 100 | > 100 | > 100 | > 100 | > 100 | > 47.4 | – | > 100 | 4.29 | > 31.4 | > 100 | > 100 | > 100 | > 100 | > 100 |
| COc1ccc(C(=O)c2ccc(-n3c4ccccc4c4ccc5c(c43)C(=O)C=CC5=O)cc2)cc1 | > 30.9 | 3.76 | 5.09 | 1.3 | > 21.3 | 8.66 | 7.05 | – | 10.4 | 1.8 | 3.54 | 4.31 | > 100 | 7.89 | 16 | > 21.8 | 5.22 | 5.18 | – | > 100 |
| CCOC(=O)c1c(N2CCOCC2)[nH]c(=O)c(C(c2ccc(Cl)c([N+](=O)[O-])c2)c2c(O)c(C(=O)OCC)c(N3CCOCC3)[nH]c2=O)c1O | > 100 | > 100 | > 100 | > 100 | > 100 | 69.4 | > 100 | – | – | > 100 | 41.9 | 48.1 | 48.8 | 70.1 | > 100 | 55.8 | 41.9 | 98.8 | > 100 | > 100 |
| O=C(NC/C(Cl)=C/Cl)Nc1cccc2c1CCCC2 | > 100 | > 100 | > 100 | > 100 | > 100 | > 100 | > 100 | – | > 100 | > 100 | > 100 | > 100 | > 100 | > 100 | > 100 | > 100 | > 100 | > 100 | > 100 | > 100 |
| CC(C)(C)c1cc(C(C)(C)C)c2sc(=S)oc2c1O | 18.5 | 17.2 | 26 | 22.6 | 24.4 | 28.9 | 27.4 | 33 | 24.6 | 20.8 | 18.7 | 17.7 | 20.6 | 19.8 | 14.5 | 25.5 | 26.7 | 18.9 | 32.1 | 9.76 |
| N#CC(c1ccccc1)N(CCc1ccccc1)C(=O)Oc1ccccc1 (stereo not given) | 74.7 | > 100 | > 100 | > 100 | > 100 | 95.7 | > 100 | > 100 | > 100 | > 100 | > 100 | > 100 | > 100 | > 100 | > 100 | > 100 | > 100 | > 100 | > 100 | > 100 |
| NC(N)=NS(=O)(=O)c1ccc(NNc2c3ccccc3nc3c(C(=O)Nc4ccc(S(N)(=O)=O)cc4)cccc23)cc1 | > 100 | > 100 | > 100 | > 100 | > 100 | 73.8 | > 100 | 77.9 | > 100 | > 100 | 83.9 | 29.4 | > 100 | > 100 | > 100 | > 100 | > 100 | > 100 | > 100 | > 100 |
| COc1ccccc1OC(=O)/C=C/c1ccccc1 | > 100 | > 100 | > 100 | > 100 | > 100 | > 100 | > 100 | > 100 | > 100 | > 100 | > 100 | > 100 | > 100 | > 100 | > 100 | > 100 | > 100 | > 100 | > 100 | > 100 |
| COc1ccc(Nc2nc3ccccc3nc2C(=O)O)cc1 | > 100 | > 100 | > 100 | > 100 | > 100 | > 100 | > 100 | > 100 | > 100 | > 100 | > 100 | > 100 | > 100 | > 100 | > 100 | > 100 | > 100 | > 100 | > 100 | > 100 |
| O=C1/C(=C\c2c(-c3ccccc3)nn(-c3ccccc3)c2O)C(c2ccccc2)=NN1c1ccccc1 | > 100 | > 100 | > 100 | > 100 | > 100 | > 100 | > 100 | > 100 | > 100 | > 100 | > 100 | > 100 | > 100 | > 100 | > 100 | > 100 | > 100 | > 100 | > 100 | 61.4 |
| O=c1c2ncn(CCCl)c2n(-c2ccccc2)c(=S)n1-c1ccccc1 | – | > 100 | > 100 | > 100 | > 100 | > 100 | > 100 | > 100 | > 100 | > 100 | > 100 | > 100 | > 100 | > 100 | > 100 | > 100 | > 100 | > 100 | > 100 | > 100 |
| CNC(=O)OCCN1c2ccccc2Sc2ccccc21 | – | > 100 | > 100 | > 100 | > 100 | > 100 | > 100 | > 100 | > 100 | > 100 | > 100 | > 100 | > 100 | > 100 | 99.2 | > 100 | 89.5 | > 100 | > 100 | > 100 |
| COc1ccc(C2C(Cl)C(=O)N2NC(=O)c2ccc(N)cc2)cc1OC (stereo not given) | 33.3 | 30.7 | 31.5 | 8.59 | 5.16 | 5.07 | 29.1 | 4.54 | 3.27 | 26.9 | 7.28 | 3.55 | 24.9 | 23.5 | 30.4 | 32.1 | 39.7 | 18.8 | 25.6 | 4.85 |
| CC(=O)O/C=C\OC1CCCC1 | > 100 | > 100 | > 100 | > 100 | > 100 | > 100 | > 100 | > 100 | > 100 | > 100 | > 100 | > 100 | > 100 | > 100 | > 100 | > 100 | > 100 | > 100 | > 100 | > 100 |
